The results in this text go back to US10328053B2 (Gilead Sciences, Inc., priority 2016, dated 2019).

For orientation: pEC50 means the negative decadic logarithm of the EC50, by convention in mol/L.

Data set [1] deals with HBV AD38 viral particles in HepG2 cell line overexpressing NTCP. Description: HBV DNA Quantification Assay. The format is cell-based. To be noted: Hepatitis B virus, HepG2, 120 h, HBV-infected HepG2-NTCP cells, 5 days incubation, HBV DNA in culture supernatant (QuantiGene 2.0); geometric mean of a minimum of four determinations. The protocol:
HBV DNA Quantification Assay
A HepG2 cell line overexpressing the HBV virus attachment receptor sodium-taurocholate cotransporting polypeptide (NTCP) was grown to confluency in DMEM growth medium, Dulbecco's Modified Eagle Medium without sodium pyruvate (Life Technologies, Rockville, Md.) supplemented with 10% FBS (Thermo Scientific, Waltham, Md.), 1% penicillin/streptomycin (Life Technologies, Rockville, Md.) and 2 mM L-glutamine (Life Technologies, Rockville, Md.) in T175 flasks. Cells were infected with HBV AD38 viral particles (Texcell, Frederick, USA) at 4000 genome equivalents per cell. After allowing viral infection to take place for 4 days, the infected cells were harvested from the flasks by trypsinization, washed twice with OptiMEM (Life Technologies, Rockville, Md.) and re-suspended in DMEM containing 2% FBS and 1% DMSO at a density of 0.25E6 cells/ml. Infected cells were seeded on 384 well collagen coated plates (Greiner, Austria) at a density of 20,000 cells/well containing serially diluted compounds of the present disclosure or DMSO (0.5%) in a final volume of 80 μl. The assay plates were incubated for a period of 5 days and the antiviral activity of the test compounds were assayed by detecting the presence of HBV DNA in the culture supernatant using the QuantiGene™ 2.0 nucleic acid quantification kit (Affymetrix, Santa Clara, Calif.).
The culture supernatant was harvested and treated with lysis buffer containing Proteinase K (Affymetrix, Santa Clara, Calif.). The supernatant was incubated with HBV viral DNA specific probes (Affymetrix, Santa Clara, Calif.) for 30 minutes at 55° C. This was followed by addition of 0.2M NaOH for 30 minutes at room temperature to denature the DNA, followed by addition of Neutralization buffer (Affymetrix, Santa Clara, Calif.). The resulting lysed and neutralized supernatant was then added to QuantiGene™ 2.0 384 well plates coated with capture oligonucleotides and incubated overnight at 55° C. The HBV specific probe set consists of Capture Extender oligonucleotides (CE's) and blocking probes. Following the overnight incubation, the wells were incubated for one hour sequentially with a Pre-Amplifier, Amplifier and Labeled probes conjugated to alkaline phosphatase with a wash step between incubations. After the final wash step, the alkaline phosphatase substrate (Luminol APS5) was added and the resulting luminescence signal was read in an EnVision Multilabel Plate Reader (PerkinElmer, Santa Clara, Calif.). The EC50 values were calculated from the fit of the dose—response curves to a four-parameter equation. All EC50 values represent geometric mean values of a minimum of four determinations.

The nature of data set [2]: Hepatic Stability Assay (in vitro half-life method). The format is in vitro ADME. On the set-up: dose or concentration left out as unconfirmed. Conditions: pooled cryopreserved hepatocytes, 37° C., 1×10^6 cells/mL, 0-6 hours, LC-MS/MS, 39.5 hours is the maximum detectable half life, read-out: t½ (converted). In outline:
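Pooled cryopreserved hepatocytes (1×10^6 cells/mL) incubated with compound at […] test concentration, 37° C.; samples at 0, 1, 3 and 6 h quantified by LC-MS/MS. Half-life from rate of compound disappearance, scaled to predicted hepatic clearance via well-stirred model.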

pEC50: −log10 of the molar value.

For `CNC(=O)C1(NC(=O)C(=O)c2c(C)c(C(=O)Nc3ccc(F)c(Cl)c3)n3c2[C@H]2C[C@H]2C3)CC(F)(F)C1` [Example 34, (1aR,6bS)—N-(3-chloro-4-fluorophenyl)-6-(2-((3,3-difluoro-1-(methylcarbamoyl)cyclobutyl)amino)-2-oxoacetyl)-5-methyl-1,1a,2,6b-tetrahydrocyclopropa[a]pyrrolizine-4-carboxamide], in data set [1], the pEC50 was 6.69. For the same molecule, the half-life in data set [2] is 18.1 h.

On to `C#CC1(NC(=O)C(=O)c2c(C)c(C(=O)Nc3cc(F)c(F)c(F)c3)n3c2CCC3)CC1` [Example 92, 7-(2-((1-ethynylcyclopropyl)amino)-2-oxoacetyl)-6-methyl-N-(3,4,5-trifluorophenyl)-2,3-dihydro-1H-pyrrolizine-5-carboxamide], for which the pEC50 in data set [1] was 8.19. The half-life in data set [2] is 2.2 h.

Molecule `Cc1c(C(=O)C(=O)NC2(c3c[nH]nn3)CC2)c2n(c1C(=O)Nc1ccc(F)c(Cl)c1)CCC2` [Example 6, 7-(2-((1-(1H-1,2,3-Triazol-4-yl)cyclopropyl)amino)-2-oxoacetyl)-N-(3-chloro-4-fluorophenyl)-6-methyl-2,3-dihydro-1H-pyrrolizine-5-carboxamide] gave a pEC50 in data set [1] of 7.95. In addition, the half-life in data set [2] is 8.2 h.

Molecule `CNC(=O)C1(NC(=O)C(=O)c2c(C)c(C(=O)Nc3ccc(F)c(Cl)c3)n3c2CCC3)CC1` [Example 105, N-(3-chloro-4-fluorophenyl)-6-methyl-7-(2-((1-(methylcarbamoyl)cyclopropyl)amino)-2-oxoacetyl)-2,3-dihydro-1H-pyrrolizine-5-carboxamide] had a pEC50 in data set [1] of 6.77. Moreover, the half-life in data set [2] was 24.3 h.

For `Cc1c(C(=O)C(=O)NC2(C(=O)N3CCC34COC4)CC(F)(F)C2)c2n(c1C(=O)Nc1ccc(F)c(Cl)c1)CCC2` [Example 11, N-(3-chloro-4-fluorophenyl)-7-(2-((3,3-difluoro-1-(6-oxa-1-azaspiro[3.3]heptane-1-carbonyl)cyclobutyl)amino)-2-oxoacetyl)-6-methyl-2,3-dihydro-1H-pyrrolizine-5-carboxamide], in data set [1], the pEC50 is 8.11. Also, in data set [2], the half-life is 0.7 h.

With `Cc1c(C(=O)C(=O)N[C@](C)(CO)C(F)(F)F)c2n(c1C(=O)Nc1ccc(F)c(Cl)c1)CCC2` [Example 132, (R)—N-(3-Chloro-4-fluorophenyl)-6-methyl-7-(2-oxo-2-((1,1,1-trifluoro-3-hydroxy-2-methylpropan-2-yl)amino)acetyl)-2,3-dihydro-1H-pyrrolizine-5-carboxamide], the pEC50 in data set [1] was 8.08. For the same molecule, the half-life in data set [2] was 7.7 h.

In data set [1], `Cc1c(C(=O)C(=O)NC2(c3c[nH]nn3)CC(F)(F)C2)c2n(c1C(=O)Nc1ccc(F)c(C(F)F)c1)CCC2` [Example 89, 7-(2-((3,3-difluoro-1-(1H-1,2,3-triazol-4-yl)cyclobutyl)amino)-2-oxoacetyl)-N-(3-(difluoromethyl)-4-fluorophenyl)-6-methyl-2,3-dihydro-1H-pyrrolizine-5-carboxamide] gave a pEC50 of 8.54. Also, the half-life in data set [2] was 10.3 h.

Turning to `Cc1c(C(=O)C(=O)NC2(c3c[nH]nn3)CC2)c2n(c1C(=O)Nc1cc(F)c(F)cc1F)CCC2` [Example 90, 7-(2-((1-(1H-1,2,3-triazol-4-yl)cyclopropyl)amino)-2-oxoacetyl)-6-methyl-N-(2,4,5-trifluorophenyl)-2,3-dihydro-1H-pyrrolizine-5-carboxamide], the negative logarithm of the EC50 (pEC50) in data set [1] is 6.74. In data set [2], the half-life was 31.4 h.

For the molecule `CNC(=O)C1(NC(=O)C(=O)c2c(C)c(C(=O)Nc3ccc(F)c(Cl)c3)n3c2[C@@H]2C[C@@H]2C3)CC(F)(F)C1` [Example 33, (1aS,6bR)—N-(3-chloro-4-fluorophenyl)-6-(2-((3,3-difluoro-1-(methylcarbamoyl)cyclobutyl)amino)-2-oxoacetyl)-5-methyl-1,1a,2,6b-tetrahydrocyclopropa[a]pyrrolizine-4-carboxamide], the pEC50 in data set [1] was 7.57. Also, the half-life in data set [2] is 4.3 h.
